Experimental data published in patent US20050106563A1 (Genesis Biotech Inc., priority 2003, published 2005).
Where no end group is shown, it is not given here.

Key:
anti-SARS-CoV sera IgG = type: binding, human
[1] = test system: IgM specific to SARS-COV N1; type: binding, human
[2] = test system: cat anti-feline coronavirus sera; type: binding
[3] = test system: chicken anti-avian infectious bronchitis virus (IBV) sera; type: binding
[4] = test system: anti-SARS-CoV antibody in human sera; type: binding

Substance: (RNPNNNAATV)8K4K2K-βA (also: octameric MAP: 8 copies on K4K2K lysine core with C-terminal βAla) [GA152]
- detection of SARS-COV antibody (IgG) in patient #51 (anti-SARS-CoV sera IgG): can be detected
- time dependency of antibody binding (time dependent epitopes) (anti-SARS-CoV sera IgG): immediate early (days 1-6)
- detection of SARS-COV antibody (IgM) in patient #51 [1]: can be detected
- response ratio R/T [2]: 0/8
- cross reaction with chicken anti-IBV antiserum [3]: did not cross react
- Responder (AT>1, positive)/Total samples (R/T) [4]: 10/10
- Responder/Total samples (R/T) value [4]: 0
- share of group 2 regarded as probable SARS patients (17 of 23 cases) [4]: 74%

Substance: (KYFKNHTSPD)8K4K2K-βA (also: octameric MAP: 8 copies on K4K2K lysine core with C-terminal βAla) [GA287]
- time dependency of antibody binding (time dependent epitopes) (anti-SARS-CoV sera IgG): immediate early (days 1-6)

Substance: (APATVCGPKL)8K4K2K-βA (also: octameric MAP on K4K2K lysine core with C-terminal βAla) [GA115]
- cross reaction with chicken anti-IBV antiserum [3]: cross reacted only but weakly

Substance: NYKYRYLRHGKLRPFERDISNVPFS [GA91]
- response ratio R/T [2]: 6/8

Substance: (IAQFAPSASA)8K4K2K-βA (also: octameric MAP: 8 copies on K4K2K lysine core with C-terminal βAla) [GA156]
- serum binding during treatment versus recovery period (inflammation epitopes) [4]: more strongly during the treatment than during the recovery period

Substance: (DHIGTRNPNN)8K4K2K-βA (also: octameric MAP on K4K2K lysine core with C-terminal βAla) [GA151]
- detection of SARS-COV antibody (IgG) in patient #51 (anti-SARS-CoV sera IgG): can be detected
- time dependency of antibody binding (time dependent epitopes) (anti-SARS-CoV sera IgG): immediate early (days 1-6)
- detection of SARS-COV antibody (IgM) in patient #51 [1]: can be detected
- AbT [2]: 2.9
- response ratio R/T [2]: 1/8
- cross reaction with chicken anti-IBV antiserum [3]: did not cross react
- Responder (AT>1, positive)/Total samples (R/T) [4]: 10/10
- Responder/Total samples (R/T) value [4]: 0
- share of group 2 regarded as probable SARS patients (17 of 23 cases) [4]: 74%

Substance: (RYLRHGKLRP)8K4K2K-βA (also: octameric MAP: 8 copies on K4K2K lysine core with C-terminal βAla) [GA102]
- response ratio R/T [2]: 8/8
- response ratio R/T [3]: 2/3
- serum binding during treatment versus recovery period (inflammation epitopes) [4]: more strongly during the treatment than during the recovery period

Substance: (GNCDVVIGII)8K4K2K-βA (also: octameric MAP: 8 copies on K4K2K lysine core with C-terminal βAla) [GA134]
- serum binding during treatment versus recovery period (inflammation epitopes) [4]: more strongly during the treatment than during the recovery period

Substance: LLACLCKHKK (SARS Coronavirus) [GA231]
- detection of SARS-COV antibody (IgG) in patient #51 (anti-SARS-CoV sera IgG): can be detected
- time dependency of antibody binding (time dependent epitopes) (anti-SARS-CoV sera IgG): immediate early (days 1-6)
- serum binding during treatment versus recovery period (inflammation epitopes) [4]: more strongly during the treatment than during the recovery period

Substance: (GANKEGIVWV)8K4K2K-βA (also: octameric MAP on K4K2K lysine core with C-terminal βAla) [GA147]
- response ratio R/T [3]: 1/3
- serum binding during treatment versus recovery period (inflammation epitopes) [4]: more strongly during the treatment than during the recovery period

Substance: (LRIPVTAEVGSSYFK)8K4K2K-βA (also: octameric MAP: 8 copies on K4K2K lysine core with C-terminal βAla) [GA6, control polypeptide, WSSV VP28 52-66]
- response ratio R/T [2]: 8/8
- response ratio R/T [3]: 1/3

Substance: (NAATVLQLPQ)8K4K2K-βA (also: octameric MAP: 8 copies on K4K2K lysine core with C-terminal βAla) [GA153]
- detection of SARS-COV antibody (IgM) in patient #51 [1]: can be detected

Substance: FVASFRLFAR (SARS Coronavirus) [GA203]
- detection of SARS-COV antibody (IgG) in patient #51 (anti-SARS-CoV sera IgG): can be detected
- time dependency of antibody binding (time dependent epitopes) (anti-SARS-CoV sera IgG): immediate early (days 1-6)

Substance: (INTNSGPDDQ)8K4K2K-βA (also: octameric MAP: 8 copies on K4K2K lysine core with C-terminal βAla) [GA137]
- serum binding during treatment versus recovery period (inflammation epitopes) [4]: more strongly during the treatment than during the recovery period

Substance: (ASLPYGANKE)8K4K2K-βA (also: octameric MAP on K4K2K lysine core with C-terminal βAla) [GA146]
- serum binding during treatment versus recovery period (inflammation epitopes) [4]: more strongly during the treatment than during the recovery period

Substance: (IGYYRRATRR)8K4K2K-βA (also: octameric MAP: 8 copies on K4K2K lysine core with C-terminal βAla) [GA139]
- serum binding during treatment versus recovery period (inflammation epitopes) [4]: more strongly during the treatment than during the recovery period

Substance: (FFGMSRIGME)8K4K2K-βA (also: octameric MAP on K4K2K lysine core with C-terminal βAla) [GA158]
- response ratio R/T [2]: 8/8
- response ratio R/T [3]: 3/3
- serum binding during treatment versus recovery period (inflammation epitopes) [4]: more strongly during the treatment than during the recovery period

Substance: (KKTDEAQPLP)8K4K2K-βA (also: octameric MAP: 8 copies on K4K2K lysine core with C-terminal βAla) [GA170]
- detection of SARS-COV antibody (IgG) in patient #51 (anti-SARS-CoV sera IgG): can be detected
- time dependency of antibody binding (time dependent epitopes) (anti-SARS-CoV sera IgG): immediate early (days 1-6)
- response ratio R/T [2]: 0/8
- cross reaction with chicken anti-IBV antiserum [3]: cross reacted only but weakly
- Responder (AT>1, positive)/Total samples (R/T) [4]: 10/10
- Responder/Total samples (R/T) value [4]: 0
- share of group 2 regarded as probable SARS patients (17 of 23 cases) [4]: 74%

Substance: MSRRRLLACL (SARS Coronavirus) [GA230]
- detection of SARS-COV antibody (IgG) in patient #51 (anti-SARS-CoV sera IgG): can be detected
- time dependency of antibody binding (time dependent epitopes) (anti-SARS-CoV sera IgG): immediate early (days 1-6)

Substance: (GKMKELSPRW)8K4K2K-βA (also: octameric MAP on K4K2K lysine core with C-terminal βAla) [GA142]
- serum binding during treatment versus recovery period (inflammation epitopes) [4]: more strongly during the treatment than during the recovery period

Substance: (YNYKYRYLRH)8K4K2K-βA (also: octameric MAP: 8 copies on K4K2K lysine core with C-terminal βAla) [GA101]
- response ratio R/T [2]: 8/8
- response ratio R/T [3]: 3/3
- serum binding during treatment versus recovery period (inflammation epitopes) [4]: more strongly during the treatment than during the recovery period

Substance: (GSITAQPVKI)8K4K2K-βA (also: octameric MAP: 8 copies on K4K2K lysine core with C-terminal βAla) [GA186]
- cross reaction with chicken anti-IBV antiserum [3]: cross reacted only but weakly

Substance: (ASVVNIQKEI)8K4K2K-βA (also: octameric MAP on K4K2K lysine core with C-terminal βAla) [GA291]
- time dependency of antibody binding (time dependent epitopes) (anti-SARS-CoV sera IgG): immediate early (days 1-6)

Substance: (RVDFCGKGYH)8K4K2K-βA (also: octameric MAP: 8 copies on K4K2K lysine core with C-terminal βAla) [GA117]
- response ratio R/T [2]: 6/8
- response ratio R/T [3]: 1/3
- serum binding during treatment versus recovery period (inflammation epitopes) [4]: more strongly during the treatment than during the recovery period

Substance: (QRQKKQPTVT)8K4K2K-βA (also: octameric MAP: 8 copies on K4K2K lysine core with C-terminal βAla) [GA172]
- response ratio R/T [2]: 8/8
- response ratio R/T [3]: 3/3

Substance: (KHWPQIAQFA)8K4K2K-βA (also: octameric MAP: 8 copies on K4K2K lysine core with C-terminal βAla) [GA155]
- response ratio R/T [2]: 8/8
- response ratio R/T [3]: 2/3
- serum binding during treatment versus recovery period (inflammation epitopes) [4]: more strongly during the treatment than during the recovery period

Substance: (GTSWFITQRN)8K4K2K-βA (also: octameric MAP: 8 copies on K4K2K lysine core with C-terminal βAla) [GA129]
- AbT [2]: > 1
- response ratio R/T [2]: 5/6

Substance: (LSPRWYFYYL)8K4K2K-βA (also: octameric MAP: 8 copies on K4K2K lysine core with C-terminal βAla) [GA143]
- serum binding during treatment versus recovery period (inflammation epitopes) [4]: more strongly during the treatment than during the recovery period

Substance: (IITTDNTFVS)8K4K2K-βA (also: octameric MAP: 8 copies on K4K2K lysine core with C-terminal βAla) [GA132]
- serum binding during treatment versus recovery period (inflammation epitopes) [4]: more strongly during the treatment than during the recovery period

Substance: (LQLPQGTTLP)8K4K2K-βA (also: octameric MAP: 8 copies on K4K2K lysine core with C-terminal βAla) [GA154]
- detection of SARS-COV antibody (IgM) in patient #51 [1]: can be detected

Substance: (QPTVTLLPAA)8K4K2K-βA (also: octameric MAP: 8 copies on K4K2K lysine core with C-terminal βAla) [GA173]
- cross reaction with chicken anti-IBV antiserum [3]: cross reacted only but weakly

Substance: (PPTEPKKDKK)8K4K2K-βA (also: octameric MAP: 8 copies on K4K2K lysine core with C-terminal βAla) [GA168]
- detection of SARS-COV antibody (IgG) in patient #51 (anti-SARS-CoV sera IgG): can be detected
- time dependency of antibody binding (time dependent epitopes) (anti-SARS-CoV sera IgG): immediate early (days 1-6)

Substance: (HGAIKLDDKD)8K4K2K-βA (also: octameric MAP: 8 copies on K4K2K lysine core with C-terminal βAla) [GA162]
- time dependency of antibody binding (time dependent epitopes) (anti-SARS-CoV sera IgG): early (days 7-29)

Substance: (RINWVTGGIA)8K4K2K-βA (also: octameric MAP: 8 copies on K4K2K lysine core with C-terminal βAla) [GA179]
- response ratio R/T [2]: 7/8
- response ratio R/T [3]: 3/3
- serum binding during treatment versus recovery period (inflammation epitopes) [4]: more strongly during the treatment than during the recovery period
